Assay results from patent US9650340B2, “5-fluoro-N-(pyridin-2-yl)pyridin-2-amine derivatives containing a sulfoximine group” (BAYER PHARMA AKTIENGESELLSCHAFT, priority 2012, dated 2017).
Where two headings read alike, the source gives them in different places.

How the values were obtained:
[1] = system: B16F10, mouse melanoma cells; assay: Proliferation assay, B16F10 (crystal violet); assay type: cell-based; details: B16F10, 4 days, read-out: Inhibition of B16F10 cell proliferation IC50
Procedure: (§1) Cultivated tumour cells (HeLa, human cervical tumour cells, ATCC CCL-2; NCI-H460, human non-small cell lung carcinoma cells, ATCC HTB-177; A2780, human ovarian carcinoma cells, ECACC #93112519; DU 145, hormone-independent human prostate carcinoma cells, ATCC HTB-81; HeLa-MaTu-ADR, multidrug-resistant human cervical carcinoma cells, EPO-GmbH Berlin; Caco-2, human colorectal carcinoma cells, ATCC HTB-37; B16F10, mouse melanoma cells, ATCC CRL-6475) were plated at a density of 5,000 cells/well (DU145, HeLa-MaTu-ADR), 3,000 cells/well (NCI-H460, HeLa), 2,500 cells/well (A2780), 1,500 cells/well (Caco-2), or 1,000 cells/well (B16F10) in a 96-well multititer plate in 200 μL of their respective growth medium supplemented 10% fetal calf serum. After 24 hours, the cells of one plate (zero-point plate) were stained with crystal violet (see below), while the medium of the other plates was replaced by fresh culture medium (200 μl), to which the test substances were added in various concentrations (0 μM, as well as in the range of 0.001-10 μM; the final concentration of the solvent dimethyl sulfoxide was 0.5%). The cells were incubated for 4 days in the presence of test substances. Cell proliferation was determined by staining the cells with crystal violet: the cells were fixed by adding 20 μl/measuring point of an 11% glutaric aldehyde solution for 15 minutes at room temperature. After three washing cycles of the fixed cells with water, the plates were dried at room temperature. The cells were stained by adding 100 μl/measuring point of a 0.1% crystal violet solution (pH 3.0). After three washing cycles of the stained cells with water, the plates were dried at room temperature. The dye was dissolved by adding 100 μl/measuring point of a 10% acetic acid solution. The extinction was determined by photometry at a wavelength of 595 nm. The change of cell number, in percent, was calculated by normalization of the measured values to the extinction values of the zero-point plate (=0%) and the extinction of the untreated (0 μm) cells (=100%). The IC50 values (inhibitory concentration at 50% of maximal effect) were determined by means of a 4 parameter fit. Non-adherent MOLM-13 human acute myeloid leukemia cells (DSMZ ACC 554) were seeded at a density of 5,000 cells/well in a 96-well multititer plate in 100 μL of growth medium supplemented 10% fetal calf serum. After 24 hours, cell viability of one plate (zero-point plate) was determined with the Cell Titre-Glo Luminescent Cell Viability Assay (Promega), while 50 μL of test compound containing medium was added to the wells of the other plates (final concentrations in the range of 0.001-10 μM and DMSO controls; the final concentration of the solvent dimethyl sulfoxide was 0.5%). Cell viability was assessed after 72-hour exposure with the Cell Titre-Glo Luminescent Cell Viability Assay (Promega).

CDK2/CycE = biological target: T1, CDK2/CycE (Homo sapiens, UniProt P24941); assay: CDK2/CycE kinase assay (TR-FRET, 10 μM ATP); assay type: biochemical; details: Method 2 (2a)
T1 construct: GST; purchased ProQinase GmbH (Freiburg, Germany); host or cells: insect cells (Sf9)
From the text: 2a. CDK2/CycE Kinase Assay:
CDK2/CycE-inhibitory activity of compounds of the present invention was quantified employing the CDK2/CycE TR-FRET assay as described in the following paragraphs:
Recombinant fusion proteins of GST and human CDK2 and of GST and human CycE, expressed in insect cells (Sf9) and purified by Glutathion-Sepharose affinity chromatography, were purchased from ProQinase GmbH (Freiburg, Germany). As substrate for the kinase reaction biotinylated peptide biotin-Ttds-[…] (C-terminus in amid form) was used which can be purchased e.g. form the company JERINI Peptide Technologies (Berlin, Germany).
For the assay 50 nl of a 100 fold concentrated solution of the test compound in DMSO was pipetted into a black low volume 384 well microtiter plate (Greiner Bio-One, Frickenhausen, Germany), 2 μl of a solution of CDK2/CycE in aqueous assay buffer [50 mM Tris/HCl pH 8.0, 10 mM MgCl2, 1.0 mM dithiothreitol, 0.1 mM sodium ortho-vanadate, 0.01% (v/v) Nonidet-P40 (Sigma)] were added and the mixture was incubated for 15 min at 22° C. to allow pre-binding of the test compounds to the enzyme before the start of the kinase reaction. Then the kinase reaction was started by the addition of 3 μl of a solution of adenosine-tri-phosphate (ATP, 16.7 μM=>final conc. in the 5 μl assay volume is 10 μM) and substrate (1.25 μM=>final conc. in the 5 μl assay volume is 0.75 μM) in assay buffer and the resulting mixture was incubated for a reaction time of 25 min at 22° C. The concentration of CDK2/CycE was adjusted depending of the activity of the enzyme lot and was chosen appropriate to have the assay in the linear range, typical concentrations were in the range of 130 ng/mL The reaction was stopped by the addition of 5 μl of a solution of TR-FRET detection reagents (0.2 μM streptavidine-XL665 [Cisbio Bioassays, Codolet, France] and 1 nM anti-RB(pSer807/pSer811)-antibody from BD Pharmingen [#558389] and 1.2 nM LANCE EU-W1024 labeled anti-mouse IgG antibody [Perkin-Elmer, product no. AD0077]) in an aqueous EDTA-solution (100 mM EDTA, 0.2% (w/v) bovine serum albumin in 100 mM HEPES/NaOH pH 7.0).
The resulting mixture was incubated 1 h at 22° C. to allow the formation of complex between the phosphorylated biotinylated peptide and the detection reagents. Subsequently the amount of phosphorylated substrate was evaluated by measurement of the resonance energy transfer from the Eu-chelate to the streptavidine-XL. Therefore, the fluorescence emissions at 620 nm and 665 nm after excitation at 350 nm was measured in a TR-FRET reader, e.g. a Rubystar (BMG Labtechnologies, Offenburg, Germany) or a Viewlux (Perkin-Elmer). The ratio of the emissions at 665 nm and at 622 nm was taken as the measure for the amount of phosphorylated substrate.

[2] = system: HeLa-MaTu-ADR, multidrug-resistant human cervical carcinoma cells; assay: Proliferation assay, HeLa-MaTu-ADR (crystal violet); assay type: cell-based; details: 4 days, read-out: Inhibition of HeLa-MaTu-ADR cell proliferation IC50
Procedure: as §1

SMILES	IC50 ([1]; Mus musculus, B16-F10, 96 h) [nM]	IC50 (CDK2/CycE) [nM]	IC50 ([2]; Homo sapiens, 96 h) [nM]	IC50 [1] [nM]	IC50 [2] [nM]
CCNC(=O)N=S(C)(=O)Cc1ccnc(Nc2cc(-c3ccc(F)cc3OC)c(F)cn2)c1 (racemic) [Example 12, (rac)-1-Ethyl-3-{[(2-{[5-fluoro-4-(4-fluoro-2-methoxyphenyl)pyridin-2-yl]amino}pyridin-4-yl)methyl](methyl)oxido-λ^6-sulfanylidene}urea]	130	140	100		
COc1cc(F)ccc1-c1cc(Nc2cc(CS(C)(=N)=O)c(Br)c(C)n2)ncc1F (racemic) [Example 5, (rac)-5-Bromo-N-[5-fluoro-4-(4-fluoro-2-methoxyphenyl)pyridin-2-yl]-6-methyl-4-[(S-methylsulfonimidoyl)methyl]pyridin-2-amine]	120	140			
COc1cc(F)ccc1-c1cc(Nc2cc(CS(C)(=N)=O)cc(C)n2)ncc1F (single isomer, unassigned; (-)) [Example 33, (−)-5-Fluoro-4-(4-fluoro-2-methoxyphenyl)-N-{6-methyl-4-[(S-methylsulfonimidoyl)methyl]pyridin-2-yl}pyridin-2-amine]		67		54	27
COc1cc(F)ccc1-c1cc(Nc2cc(CS(C)(=N)=O)ccn2)ncc1F.Cl (single isomer, unassigned; enantiomer 2) [Example 14, 5-Fluoro-4-(4-fluoro-2-methoxyphenyl)-N-{4-[(S-methylsulfonimidoyl)methyl]pyridin-2-yl}pyridin-2-amine hydrochloride; enantiomer 2]		200		73	46
CCOc1cc(F)ccc1-c1cc(Nc2cc(CS(C)(=O)=NC(=O)C(F)(F)F)cc(F)n2)ncc1F (racemic) [Example 27, (rac)-N-{[(2-{[4-(2-Ethoxy-4-fluoro-phenyl)-5-fluoropyridin-2-yl]amino}-6-fluoropyridin-4-yl)methyl]-(methyl)oxido-λ^6-sulfanylidene}-2,2,2-trifluoroacetamide]	150	1200	110		
COc1cc(F)ccc1-c1cc(Nc2cc(CS(C)(=O)=NC(=O)C(F)(F)F)cc(F)n2)ncc1F (racemic) [Example 18, (rac)-2,2,2-Trifluoro-N-{[(2-fluoro-6-{[5-fluoro-4-(4-fluoro-2-methoxyphenyl)pyridin-2-yl]amino}pyridin-4-yl)methyl](methyl)oxido-λ^6-sulfanylidene}acetamide]	68	39	35		
COc1cc(F)ccc1-c1cc(Nc2cc(CS(C)(=N)=O)cc(C(F)(F)F)n2)ncc1F (single isomer, unassigned; (+)) [Example 22, (+)-5-Fluoro-4-(4-fluoro-2-methoxyphenyl)-N-{4-[(S-methylsulfonimidoyl)methyl]-6-(trifluoromethyl)pyridin-2-yl}pyridin-2-amine]	51	18	30		
CCOc1cc(F)ccc1-c1cc(Nc2cc(CS(C)(=N)=O)cc(F)n2)ncc1F (single isomer, unassigned; (+)) [Example 28, (+)-4-(2-Ethoxy-4-fluorophenyl)-5-fluoro-N-{6-fluoro-4-[(S-methylsulfonimidoyl)methyl]pyridin-2-yl}pyridin-2-amine]	150	120	120		
COc1cc(F)ccc1-c1cc(Nc2cc(CS(C)(=N)=O)cc(C(F)F)n2)ncc1F (racemic) [Example 31, (rac)-N-{6-(Difluoromethyl)-4-[(S-methylsulfonimidoyl)methyl]pyridin-2-yl}-5-fluoro-4-(4-fluoro-2-methoxyphenyl)pyridin-2-amine]		10			
COc1cc(F)ccc1-c1cc(Nc2cc(CS(=N)(=O)CCN)ccn2)ncc1F (racemic) [Example 9, (rac)-N-(4-{[S-(2-Aminoethyl)sulfonimidoyl]methyl}pyridin-2-yl)-5-fluoro-4-(4-fluoro-2-methoxyphenyl)pyridin-2-amine]		240			
